Measured values as given in article PMC2771346 (Molecular microbiology, 2009).

Target: ObgE (Escherichia coli, UniProt P42641)
Assay: inhibition of single-turnover GTP hydrolysis, TLC of gamma-32P-GTP
Type: biochemical

Chain of ObgE (P42641 whole entry): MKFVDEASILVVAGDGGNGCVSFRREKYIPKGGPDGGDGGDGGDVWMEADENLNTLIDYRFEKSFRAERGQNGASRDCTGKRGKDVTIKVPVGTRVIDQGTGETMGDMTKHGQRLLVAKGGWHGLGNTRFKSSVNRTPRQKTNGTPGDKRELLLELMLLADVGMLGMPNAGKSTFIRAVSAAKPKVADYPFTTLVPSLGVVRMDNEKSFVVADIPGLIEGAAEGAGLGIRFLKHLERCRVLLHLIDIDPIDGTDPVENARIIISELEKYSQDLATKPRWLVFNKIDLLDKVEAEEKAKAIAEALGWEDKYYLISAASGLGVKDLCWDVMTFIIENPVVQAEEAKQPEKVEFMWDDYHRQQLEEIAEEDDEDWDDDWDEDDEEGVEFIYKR

Ki: 1.6 ± 0.4 µM
Compound: Nc1nc2c(ncn2[C@@H]2O[C@H](COP(=O)(O)OP(=O)(O)O)[C@@H](O)[C@H]2O)c(=O)[nH]1 [GDP]
